# pIC50: −log10 of the molar value.
# Target: T1, human kinase Mps-1 (Homo sapiens, UniProt P33981)
# T1 construct: N-terminally GST-tagged human full length recombinant Mps-1 kinase; GST (N); purchased Invitrogen, Karslruhe, Germany PV4071
# T1 sequence (P33981 1-857): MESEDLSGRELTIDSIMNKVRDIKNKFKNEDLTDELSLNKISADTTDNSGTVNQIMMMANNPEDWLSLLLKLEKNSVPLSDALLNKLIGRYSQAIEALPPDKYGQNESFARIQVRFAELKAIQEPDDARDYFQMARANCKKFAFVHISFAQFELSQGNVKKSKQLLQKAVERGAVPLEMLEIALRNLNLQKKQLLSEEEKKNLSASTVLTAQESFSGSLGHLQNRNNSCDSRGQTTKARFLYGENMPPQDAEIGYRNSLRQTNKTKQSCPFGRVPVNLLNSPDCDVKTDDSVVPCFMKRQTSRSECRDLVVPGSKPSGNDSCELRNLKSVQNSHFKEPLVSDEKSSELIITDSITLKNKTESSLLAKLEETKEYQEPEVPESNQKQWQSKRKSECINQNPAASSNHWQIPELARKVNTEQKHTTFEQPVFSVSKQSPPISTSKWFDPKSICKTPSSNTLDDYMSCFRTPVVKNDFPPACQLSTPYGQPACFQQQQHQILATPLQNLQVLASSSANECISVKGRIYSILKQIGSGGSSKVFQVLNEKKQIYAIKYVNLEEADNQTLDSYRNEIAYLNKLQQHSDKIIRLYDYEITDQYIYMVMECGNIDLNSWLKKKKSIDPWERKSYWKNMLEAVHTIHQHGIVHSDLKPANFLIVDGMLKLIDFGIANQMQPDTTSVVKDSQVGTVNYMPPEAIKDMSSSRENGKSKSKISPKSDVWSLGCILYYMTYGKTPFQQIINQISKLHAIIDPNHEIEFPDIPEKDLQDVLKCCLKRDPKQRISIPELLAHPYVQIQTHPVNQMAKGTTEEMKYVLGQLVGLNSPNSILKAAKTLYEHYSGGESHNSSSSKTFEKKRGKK
# Experiment: Mps-1 kinase assay (TR-FRET)
# Assay type: biochemical
# Settings: GST-tagged human full length recombinant Mps-1; 10 μM ATP; 1 μM peptide substrate; 60 min at 22° C.
# How it was run: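 TR-FRET read-out: after 1 h binding at 22° C, Eu-labelled anti-phospho-Ser/Thr antibody transfers to SA-XLent on the phosphorylated biotinylated peptide. The enzyme is GST-tagged full-length human Mps-1, typically about 1 nM final, in the linear range.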
row,SMILES,pIC50
1,"COc1ncc(-c2cn3c(-c4ccc(C(=O)NC5CC5)cc4)cnc3c(NCC(C)C)n2)cn1 [Example 1-3, N-cyclopropyl-4-{6-(2-methoxypyrimidin-5-yl)-8-[(2-methylpropyl)amino]imidazo[1,2-a]pyrazin-3-yl}benzamide]",7.90
2,"CC(C)CNc1nc(C2CCN(C)CC2)cn2c(-c3ccc(C(=O)NC4CC4)cc3)cnc12 [Example 7-6, N-cyclopropyl-4-{6-(1-methylpiperidin-4-yl)-8-[(2-methylpropyl)amino]imidazo[1,2-a]pyrazin-3-yl}benzamide]",8.41
3,"Cc1cc(-c2cnc3c(NCC(C)(C)O)nc(Oc4cccc(F)c4)cn23)ccc1C(=O)NC1CC1 [Example 13-5, N-cyclopropyl-4-{6-(3-fluorophenoxy)-8-[(2-hydroxy-2-methylpropyl)amino]imidazo[1,2-a]pyrazin-3-yl}-2-methyl benzamide]",8.77
4,"Cc1cc(-c2cnc3c(NCCC(F)(F)F)nc(C4=CC[S+]([O-])CC4)cn23)ccc1C(=O)NC1CC1 (stereo not drawn) [Example 9-1, N-cyclopropyl-2-methyl-4-{6-(1-oxido-3,6-dihydro-2H-thiopyran-4-yl)-8-[(3,3,3-trifluoropropyl)amino]imidazo[1,2-a]pyrazin-3-yl}benzamide]",7.80
5,"O=C(NC1CC1)c1ccc(-c2cnc3c(NCC4CCCO4)nc(C4=CCOCC4)cn23)cc1Cl (stereo not drawn) [Example 1-45, 2-chloro-N-cyclopropyl-4-{6-(3,6-dihydro-2H-pyran-4-yl)-8-[(tetrahydro-furan-2-ylmethyl)amino]imidazo[1,2-a]pyrazin-3-yl}benzamide]",6.98
6,"CCOC(C)CNc1nc(-c2ccncc2)cn2c(-c3ccc(C(=O)NC4CC4)cc3)cnc12 (stereo not drawn) [Example 3-30, N-cyclopropyl-4-{8-[(2-ethoxypropyl)amino]-6-(pyridin-4-yl)imidazo [1,2-a]pyrazin-3-yl} benzamide]",8.15
7,"O=C(NC1CC1)c1ccc(-c2cnc3c(NCc4ccc(F)cc4)nc(-c4ccncc4)cn23)cc1 [Example 3-10, N-cyclopropyl-4-{8-[(4-fluorobenzyl)amino]-6-(pyrdin-4-yl)imidazo [1,2-a]pyrazin-3-yl} benzamide]",8.72
8,"Cn1cc(CNc2nc(-c3cccc(CC(N)=O)c3)cn3c(-c4ccc(C(=O)NC5CC5)cc4)cnc23)cn1 [Example 1-93, 4-(6-[3-(2-Amino-2-oxo-ethyl)phenyl]-8-{[(1-methyl-1H-pyrazol-4-yl)methyl]amino}imidazo[1,2-a]pyrazin-3-yl)-N-cyclopropyl benzamide]",8.31
9,"Cc1cc(-c2cnc3c(NCCC(F)(F)F)nc(-c4c(C)noc4C)cn23)ccc1C(=O)NC1CC1 [Example 1-74, N-cyclopropyl-4-{6-(3,5-dimethyl-1,2-oxazol-4-yl)-8-[(3,3,3-trifluoro-propyl)amino]imidazo [1,2-a]pyrazin-3-yl}-2-methylbenzamide]",8.39
10,"O=C(NC1CC1)c1ccc(-c2cnc3c(NCC4CCCO4)nc(-c4ccncc4)cn23)cc1Cl (stereo not drawn) [Example 1-42, 2-chloro-N-cyclopropyl-4-{6-(pyridin-4-yl)-8-[(tetrahydrofuran-2-ylmethyl)amino]imidazo [1,2-a]pyrazin-3-yl} benzamide]",7.39
11,"O=C(NC1CC1)c1ccc(-c2cnc3c(NCc4ccncc4)nc(-c4ccncc4)cn23)cc1 [Example 3-19, N-cyclopropyl-4-{6-(pyridin-4-yl)-8-[(pyridin-4-ylmethyl)amino]imidazo [1,2-a]pyrazin-3-yl} benzamide]",8.68
12,"CC(C)CNc1nc(-c2ccncc2)cn2c(-c3ccc(C(=O)NC4CC4)cc3)cnc12 [Example 1-1, N-cyclopropyl-4-{8-[(2-methylpropyl)amino]-6-(pyridin-4-yl)imidazo[1,2-a]pyrazin-3-yl}benzamide]",8.74
13,"CCN1CCC(CNc2nc(C3=CCOCC3)cn3c(-c4ccc(C(=O)NC5CC5)c(C)c4)cnc23)C1 (stereo not drawn) [Example 6-19, N-cyclopropyl-4-[6-(3,6-dihydro-2H-pyran-4-yl)-8-{[(1-ethyl-pyrrolidin-3-yl)methyl]amino}imidazo[1,2-a]pyrazin-3-yl]-2-methylbenzamide]",6.47
14,"Cn1nccc1CNc1nc(-c2ccn[nH]2)cn2c(-c3ccc(C(=O)NC4CC4)c(F)c3)cnc12 [Example 1-66, N-cyclopropyl-2-fluoro-4-[8-{[(1-methyl-1H-pyrazol-5-yl)methyl]amino}-6-(1H-pyrazol-5-yl)imidazo[1,2-a]pyrazin-3-yl]benzamide]",7.52
15,"Cc1cc(-c2cnc3c(NCCC(F)(F)F)nc(-c4cccn4C)cn23)ccc1C(=O)NC1CC1 [Example 1-75, N-cyclopropyl-2-methyl-4-{6-(1-methyl-1H-pyrrol-2-yl)-8-[(3,3,3-trifluoro-propyl)amino]imidazo [1,2-a]pyrazin-3-yl} benzamide]",8.42
16,"CC(C)CNc1nc(-c2cncc(C(=O)NC(C)(C)C)c2)cn2c(-c3ccc(C(=O)NC4CC4)cc3)cnc12 [Example 1-24, N-tert-butyl-5-{3-[4-(cyclopropylcarbamoyl)phenyl]-8-[(2-methyl-propyl)amino]imidazo [1,2-a]pyrazin-6-yl} pyridine-3-carboxamide]",7.71
17,"CC(C)CNc1nc(-c2ccc(CN(C)C)cc2)cn2c(-c3ccc(C(=O)NC4CC4)cc3)cnc12 [Example 1-31, N-cyclopropyl-4-(6-{4-[(dimethylamino)methyl]phenyl}-8-[(2-methyl-propyl)amino]imidazo [1,2-a]pyrazin-3-yl) benzamide]",8.48
18,"Cc1cc(-c2cnc3c(NCC4CCC(C)(O)CC4)nc(C4=CCOCC4)cn23)ccc1C(=O)NC1CC1 (stereo not drawn) [Example 6-8, N-cyclopropyl-4-[6-(3,6-dihydro-2H-pyran-4-yl)-8-{[(4-hydroxy-4-methylcyclohexyl)methyl]amino}imidazo[1,2-a]pyrazin-3-yl]-2-methylbenzamide]",7.95
19,"C=CCNc1nc(-c2ccccc2)cn2c(-c3ccc(C(=O)NC4CC4)cc3)cnc12 [Example 3-39, 4-[8-(Allylamino)-6-phenylimidazo[1,2-a]pyrazin-3-yl]-N-cyclopropylbenzamide]",8.44
20,"Cn1nccc1CNc1nc(-c2ccncc2)cn2c(-c3ccc(C(=O)NC4CC4)c(Cl)c3)cnc12 [Example 1-46, 2-chloro-N-cyclopropyl-4-[8-{[(1-methyl-1H-pyrazol-5-yl)methyl]amino}-6-(pyridin-4-yl)imidazo[1,2-a]pyrazin-3-yl]benzamide]",7.49
21,"CC(C)(O)CNc1nc(-c2ccncc2)cn2c(-c3ccc(C(=O)NC4CC4)c(Cl)c3)cnc12 [Example 1-40, 2-chloro-N-cyclopropyl-4-{8-[(2-hydroxy-2-methylpropyl)amino]-6-(pyridin-4-yl)imidazo [1,2-a]pyrazin-3-yl} benzamide]",7.24
22,"Cc1cc(-c2cnc3c(NCC4CCCO4)nc(C4=CCOCC4)cn23)ccc1C(=O)NC1CC1 (stereo not drawn) [Example 6-4, N-cyclopropyl-4-{6-(3,6-dihydro-2H-pyran-4-yl)-8-[(tetrahydrofuran-2-ylmethyl)amino]imidazo[1,2-a]pyrazin-3-yl}-2-methylbenzamide]",7.45
23,"Cc1cc(-c2cnc3c(NCCC(F)(F)F)nc(CN)cn23)ccc1C(=O)NC1CC1 [Example 10-1, 4-{6-(aminomethyl)-8-[(3,3,3-trifluoropropyl)amino]imidazo[1,2-a]pyrazin-3-yl}-N-cyclopropyl-2-methylbenzamide]",7.08
24,"CC(C)CNc1nc(C2=CCOCC2)cn2c(-c3ccc(C(=O)NC4CC4)cc3)cnc12 [Example 1-29, N-cyclopropyl-4-{6-(3,6-dihydro-2H-pyran-4-yl)-8-[(2-methylpropyl)amino]imidazo[1,2-a]pyrazin-3-yl}benzamide]",8.85
25,"Cc1cc(-c2cnc3c(NCC4CC(=O)N(C)C4)nc(C4=CCOCC4)cn23)ccc1C(=O)NC1CC1 (stereo not drawn) [Example 6-15, N-cyclopropyl-4-[6-(3,6-dihydro-2H-pyran-4-yl)-8-{[(1-methyl-5-oxopyrrolidin-3-yl)methyl]amino}imidazo[1,2-a]pyrazin-3-yl]-2-methylbenzamide]",7.35
26,"CC(C)CNc1nc(-c2ccc(S(=O)(=O)n3cccc3)cc2)cn2c(-c3ccc(C(=O)NC4CC4)cc3)cnc12 [Example 1-23, N-cyclopropyl-4-{8-[(2-methylpropyl)amino]-6-[4-(1H-pyrrol-1-yl-sulonyl)phenyl]imidazo [1,2-a]pyrazin-3-yl} benzamide]",7.88
27,"O=C(NC1CC1)c1ccc(-c2cnc3c(NCCc4nccs4)nc(-c4ccncc4)cn23)cc1 [Example 3-34, N-cyclopropyl-4-[6-(pyridin-4-yl)-8-{[2-(1,3-thiazol-2-yl)ethyl]amino}imidazo[1,2-a]pyrazin-3-yl]benzamide]",8.09

# From patent US20140135319A1, “6-SUBSTITUTED IMIDAZOPYRAZINES FOR USE AS MPS-1 AND TKK INHIBITORS IN THE TREATMENT OF HYPERPROLIFERATIVE DISORDERS” (BAYER INTELLECTUAL PROPERTY GMBH, priority 2010, published 2014)
